Assays:
Type in all cases: in vivo
rice (Oryza sativa) = assay: Test B flooded paddy: rice; settings: Flood; 125 g ai/ha; applied to paddy water at 2-leaf stage; visually evaluated after 13 to 15 days
Outline: (§1)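 Response scored visually, 0–100 relative to controls, 13–15 days after the compound was applied into paddy water; plants were at the 2-leaf stage in pots kept flooded to 3 cm.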

[1] = test system: barnyardgrass (Echinochloa crus-galli); assay: Test B flooded paddy: barnyardgrass; settings: Flood; 125 g ai/ha; applied to paddy water at 2-leaf stage; visually evaluated after 13 to 15 days
Outline: as §1

[2] = test system: blackgrass (Alopecurus myosuroides); assay: Test C pre-/postemergence: blackgrass
Outline: (§2)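 Preemergence on seeds in loam/sand, postemergence on 2–18 cm (1–4-leaf) plants in peat-based medium; compounds in non-phytotoxic solvent with surfactant. After 13–15 days in greenhouse, visual rating versus controls, 0 (no effect) to 100 (complete control).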

[3] = test system: winter wheat (Triticum aestivum); assay: Test C pre-/postemergence: winter wheat
Outline: as §2

corn (Zea mays) = assay: Test C pre-/postemergence: corn
Outline: as §2

[4] = test system: foxtail, giant (giant foxtail, Setaria faberii); assay: Test C pre-/postemergence: foxtail, giant
Outline: as §2

[5] = test system: johnsongrass (Sorghum halepense); assay: Test C pre-/postemergence: johnsongrass
Outline: as §2

kochia (Kochia scoparia) = assay: Test C pre-/postemergence: kochia; settings: Postemergence
Outline: as §2

[6] = test system: pigweed (Amaranthus retroflexus); assay: Test C pre-/postemergence: pigweed
Outline: as §2

soybean (Glycine max) = assay: Test C pre-/postemergence: soybean
Outline: as §2

[7] = test system: velvetleaf (Abutilon theophrasti); assay: Test C pre-/postemergence: velvetleaf
Outline: as §2

[8] = Postemergence, 31 g ai/ha, scale 0 to 100 (0 no effect, 100 complete control)
[9] = Postemergence, 62 g ai/ha, scale 0 to 100 (0 no effect, 100 complete control)
[10] = Postemergence, 125 g ai/ha, scale 0 to 100, 0 no effect, 100 complete control
[11] = Postemergence, 250 g ai/ha, scale 0 to 100
[12] = Preemergence, 31 g ai/ha, scale 0 (no effect) to 100 (complete control)
[13] = Preemergence, 62 g ai/ha, scale of 0 to 100, 0 is no effect, 100 is complete control
[14] = Preemergence, 125 g ai/ha, scale 0 to 100, 0 no effect, 100 complete control
[15] = Preemergence, 250 g ai/ha, scale 0 to 100, 0 no effect, 100 complete control
[16] = Postemergence, 250 g ai/ha, scale 0 to 100 (0 no effect, 100 complete control)
[17] = 31 g ai/ha, scale 0 to 100 (0 no effect, 100 complete control)
[18] = 62 g ai/ha, scale 0 to 100 (0 no effect, 100 complete control)
[19] = 125 g ai/ha, scale 0 to 100, 0 no effect, 100 complete control
[20] = 250 g ai/ha, scale 0 to 100 (0 no effect, 100 complete control)

CCc1nn(-c2ccc(C(F)(F)F)c(F)c2)nc1Oc1ccnc(C(F)(F)F)c1 [Compound 183]
90: Plant response rating, Kochia (kochia (Kochia scoparia); [17]) | Plant response rating, Kochia (kochia (Kochia scoparia); [18]) | Plant response rating, Kochia (kochia (Kochia scoparia); [19]) | Plant response rating, Soybean (soybean (Glycine max); [16])
100: Plant response rating, Blackgrass [2, 15] | Plant response rating, Foxtail, Giant [4, 12] | Plant response rating, Foxtail, Giant [4, 13] | Plant response rating, Foxtail, Giant [4, 14] | Plant response rating, Foxtail, Giant [4, 15] | Plant response rating, Pigweed [6, 8] | Plant response rating, Pigweed [6, 10] | Plant response rating, Pigweed [6, 16] | Plant response rating, Pigweed [6, 12] | Plant response rating, Pigweed [6, 13] | Plant response rating, Pigweed [6, 14] | Plant response rating, Pigweed [6, 15] | Plant response rating, Velvetleaf [7, 14] | Plant response rating, Velvetleaf [7, 15]
60: Plant response rating, Blackgrass [2, 10] | Plant response rating, Blackgrass [2, 11]
45: Plant response rating, Rice (0 to 100 scale, 0 is no effect, 100 is complete control) (rice (Oryza sativa)) | Plant response rating, Foxtail, Giant [4, 8] | Plant response rating, Foxtail, Giant [4, 9] | Plant response rating, Velvetleaf [7, 12]
20: Plant response rating, Blackgrass [2, 9] | Plant response rating, Wheat [3, 9] | Plant response rating, Wheat [3, 10] | Plant response rating, Corn (corn (Zea mays); [9]) | Plant response rating, Johnsongrass [5, 8]
75: Plant response rating, Johnsongrass [5, 16] | Plant response rating, Velvetleaf [7, 8] | Plant response rating, Velvetleaf [7, 10] | Plant response rating, Velvetleaf [7, 16]
85: Plant response rating, Foxtail, Giant [4, 11]
40: Plant response rating, Wheat [3, 15] | Plant response rating, Corn (corn (Zea mays); [14]) | Plant response rating, Corn (corn (Zea mays); [15])
5: Plant response rating, Wheat [3, 12] | Plant response rating, Soybean (soybean (Glycine max); [12]) | Plant response rating, Soybean (soybean (Glycine max); [13])
10: Plant response rating, Blackgrass [2, 8] | Plant response rating, Wheat [3, 8] | Plant response rating, Wheat [3, 13] | Plant response rating, Corn (corn (Zea mays); [8]) | Plant response rating, Johnsongrass [5, 12] | Plant response rating, Soybean (soybean (Glycine max); [14])
50: Plant response rating, Johnsongrass [5, 10]
15: Plant response rating, Corn (corn (Zea mays); [12]) | Plant response rating, Corn (corn (Zea mays); [13])
80: Plant response rating, Blackgrass [2, 12] | Plant response rating, Johnsongrass [5, 14]
35: Plant response rating, Wheat [3, 14] | Plant response rating, Johnsongrass [5, 13] | Plant response rating, Soybean (soybean (Glycine max); [8])
65: Plant response rating, Foxtail, Giant [4, 10]
30: Plant response rating, Barnyardgrass (0 to 100 scale, 0 is no effect, 100 is complete control) [1] | Plant response rating, Wheat [3, 16] | Plant response rating, Corn (corn (Zea mays); [11]) | Plant response rating, Johnsongrass [5, 9] | Plant response rating, Soybean (soybean (Glycine max); [15])
55: Plant response rating, Soybean (soybean (Glycine max); [9]) | Plant response rating, Soybean (soybean (Glycine max); [10]) | Plant response rating, Velvetleaf [7, 13]
95: Plant response rating, Blackgrass [2, 13] | Plant response rating, Blackgrass [2, 14] | Plant response rating, Johnsongrass [5, 15] | Plant response rating, Kochia (kochia (Kochia scoparia); [20])

CCOc1nn(-c2ccc(Cl)cc2)nc1Cc1ccnc(C(F)(F)F)c1 [Compound 188]
95: Plant response rating, Johnsongrass [5, 10] | Plant response rating, Johnsongrass [5, 14] | Plant response rating, Pigweed [6, 8] | Plant response rating, Pigweed [6, 9]
70: Plant response rating, Kochia (kochia (Kochia scoparia); [17]) | Plant response rating, Velvetleaf [7, 10] | Plant response rating, Velvetleaf [7, 16]
50: Plant response rating, Rice (0 to 100 scale, 0 is no effect, 100 is complete control) (rice (Oryza sativa)) | Plant response rating, Wheat [3, 16] | Plant response rating, Soybean (soybean (Glycine max); [9]) | Plant response rating, Soybean (soybean (Glycine max); [10]) | Plant response rating, Velvetleaf [7, 8]
45: Plant response rating, Wheat [3, 10] | Plant response rating, Johnsongrass [5, 8] | Plant response rating, Velvetleaf [7, 12]
75: Plant response rating, Barnyardgrass (0 to 100 scale, 0 is no effect, 100 is complete control) [1] | Plant response rating, Johnsongrass [5, 9]
10: Plant response rating, Corn (corn (Zea mays); [8]) | Plant response rating, Corn (corn (Zea mays); [14])
80: Plant response rating, Blackgrass [2, 12]
98: Plant response rating, Foxtail, Giant [4, 8] | Plant response rating, Foxtail, Giant [4, 9] | Plant response rating, Foxtail, Giant [4, 10] | Plant response rating, Johnsongrass [5, 16] | Plant response rating, Johnsongrass [5, 15] | Plant response rating, Pigweed [6, 10]
65: Plant response rating, Soybean (soybean (Glycine max); [15]) | Plant response rating, Velvetleaf [7, 9] | Plant response rating, Velvetleaf [7, 13]
20: Plant response rating, Wheat [3, 8] | Plant response rating, Corn (corn (Zea mays); [9]) | Plant response rating, Corn (corn (Zea mays); [10]) | Plant response rating, Corn (corn (Zea mays); [15]) | Plant response rating, Soybean (soybean (Glycine max); [13])
30: Plant response rating, Wheat [3, 9] | Plant response rating, Wheat [3, 12] | Plant response rating, Wheat [3, 13]
5: Plant response rating, Corn (corn (Zea mays); [12]) | Plant response rating, Corn (corn (Zea mays); [13]) | Plant response rating, Soybean (soybean (Glycine max); [12])
40: Plant response rating, Wheat [3, 15] | Plant response rating, Soybean (soybean (Glycine max); [8])
85: Plant response rating, Blackgrass [2, 10] | Plant response rating, Johnsongrass [5, 13] | Plant response rating, Velvetleaf [7, 14]
35: Plant response rating, Wheat [3, 14] | Plant response rating, Corn (corn (Zea mays); [11])
100: Plant response rating, Blackgrass [2, 13] | Plant response rating, Blackgrass [2, 14] | Plant response rating, Blackgrass [2, 15] | Plant response rating, Foxtail, Giant [4, 11] | Plant response rating, Foxtail, Giant [4, 12] | Plant response rating, Foxtail, Giant [4, 13] | Plant response rating, Foxtail, Giant [4, 14] | Plant response rating, Foxtail, Giant [4, 15] | Plant response rating, Pigweed [6, 16] | Plant response rating, Pigweed [6, 12] | Plant response rating, Pigweed [6, 13] | Plant response rating, Pigweed [6, 14] | Plant response rating, Pigweed [6, 15]
90: Plant response rating, Blackgrass [2, 11] | Plant response rating, Kochia (kochia (Kochia scoparia); [18]) | Plant response rating, Kochia (kochia (Kochia scoparia); [19]) | Plant response rating, Kochia (kochia (Kochia scoparia); [20]) | Plant response rating, Velvetleaf [7, 15]
55: Plant response rating, Blackgrass [2, 8] | Plant response rating, Blackgrass [2, 9] | Plant response rating, Johnsongrass [5, 12] | Plant response rating, Soybean (soybean (Glycine max); [16])

From US9302999B2, “Substituted triazoles as herbicides” (E. I. DU PONT DE NEMOURS AND COMPANY, priority 2012, dated 2016)
